Laboratory results taken from patent US20170008888A1 (KYORIN PHARMACEUTICAL CO., LTD., priority 2014, published 2017).

System: DNFB-induced ear inflammation mouse model
Test: DNFB-induced ear inflammation mouse model: cytokine concentrations in ear tissue
Format: in vivo, mouse (Balb/c)
Description: In vivo T-cell mediated immune response was examined in a mouse model of CHS using the hapten dinitrofluorobenzene (DNFB) as the induction agent. […] On Days 0 and 1 (sensitization), 20 μL of 0.5% v/v DNFB in acetone:olive oil (4:1) was applied to each hindpaw of 8 week old male mice (Balb/c, Charles River Laboratories; 10 mice per group unless otherwise noted). On Day 5 (elicitation) 10 μL of 0.2% v/v DNFB in acetone: olive oil (4:1) was applied to the dorsal surface of the right ear of each animal; 10 μL of acetone: olive oil (4:1) was applied to the dorsal surface of the left ear as control. Treatments were administered by group as indicated in the table below; on days when DNFB was used, the QD and the morning dose of BID as appropriate were administered 30 minutes-1 hr. prior to DNFB application. […] Approximately 24 hours after elicitation (Day 6), a 7 mm tissue punch from the central portion of both ears was collected and wet weights measured. The primary functional assessment was the difference in wet weights of the right (DNFB) vs. left (vehicle) ears compared to the vehicle treatment (Vehicle1-S) as an indicator of inflammation (Table 17). Ear tissue punches were flash frozen, stored at −70° C. and analyzed for cytokines (see below).
Cytokine concentrations after DNFB induction and treatment were analyzed in the weighed and flash frozen tissues of the right (DNFB) and left (control) 7 mm ear punches. The ear tissues were stored at −70° C. until prepared for analysis as follows. Left or right ear tissues from the same treatment group were pooled and crushed with mortar and pestle under liquid nitrogen. Tissue representing 7-8 ear punches by weight was homogenized in Buffer A (50 mM HEPES pH 7.4, 100 mM NaCl) containing 1 tablet EDTA-free Protease Inhibitor (Thermo Fisher Scientific, Rockford, Ill.) per 10 mL, 1× Phosphatase Inhibitor Cocktail II (AG Scientific, San Diego, Calif.), and 1 mM PMSF (Sigma, St. Louis, Mo.). Homogenization was performed in Lysing Matrix D tubes (MP Biomedicals, Solon, Ohio), using the FastPrep-24 instrument (MP Biomedicals) at a speed setting of 6 for 4 cycles of 30 seconds, with cooling on ice in between cycles. The tubes were then centrifuged at 1,000×g for 10 min at 4° C. Supernatant was collected and briefly sonicated using the Microson probe sonicator at setting 3 (Misonix, Farmingdale, N.Y.) before centrifuging again at 10,000×g for 10 min at 4° C. The supernatant was ultracentrifuged at 100,000×g for 1 h at 4° C. in the Optima Max-E (Beckman Coulter, Indianapolis, Ind.) to separate soluble and membrane protein fractions. The soluble (supernatant) fraction was collected and protein concentrations determined using the Dc protein kit (Bio-Rad, Hercules, Calif.). Soluble ear proteins were analyzed in triplicate for cytokine response at a final protein concentration of 4 mg/ml using the Bio-Plex Pro Mouse Cytokine 23-Plex panel (Bio-Rad) as per manufacturer's protocols. Magnetic beads were read on the Bio-Plex MAGPIX multiplex reader instrument using the accompanying xPONENT 4.2 acquisition software (Bio-Rad Laboratories, Hercules, Calif.). Data were analyzed via the Bio-Plex Manager software v6.1 (Bio-Rad Laboratories). Response was calculated as a percentage of the cytokine concentrations measured in the right (DNFB) ears of vehicle 1 dosed (S regimen, i.e. dosed Day 0-5) mice (Table 18).

Compound: CCOc1cc(C(=O)N2CCC(N3CCCC3)CC2)ccc1Nc1cc2c(cn1)N(C)C(=O)c1ccccc1N2C [Compound 46, 3-(2-Ethoxy-4-(4-(pyrrolidin-1-yl)piperidine-1-carbonyl)phenylamino)-5,11-dimethyl-5H-benzo[e]pyrido[3,4-b][1,4]diazepin-10(11H)-one]
- G-CSF: Mean % Cytokine Concentration in DNFB Treated Right Ears versus Vehicle 1-Dosed (S) Mice (25 mg/kg, regimen E): 58%
- GM-CSF: Mean % Cytokine Concentration in DNFB Treated Right Ears versus Vehicle 1-Dosed (S) Mice (25 mg/kg, regimen E): 29%
- IFN-γ: Mean % Cytokine Concentration in DNFB Treated Right Ears versus Vehicle 1-Dosed (S) Mice (25 mg/kg, regimen E): 51%
- IL-1α: Mean % Cytokine Concentration in DNFB Treated Right Ears versus Vehicle 1-Dosed (S) Mice (25 mg/kg, regimen E): 128%
- IL-1β: Mean % Cytokine Concentration in DNFB Treated Right Ears versus Vehicle 1-Dosed (S) Mice (25 mg/kg, regimen E): 57%
- IL-3: Mean % Cytokine Concentration in DNFB Treated Right Ears versus Vehicle 1-Dosed (S) Mice (25 mg/kg, regimen E): 75%
- IL-5: Mean % Cytokine Concentration in DNFB Treated Right Ears versus Vehicle 1-Dosed (S) Mice (25 mg/kg, regimen E): 63%
- IL-6: Mean % Cytokine Concentration in DNFB Treated Right Ears versus Vehicle 1-Dosed (S) Mice (25 mg/kg, regimen E): 53%
- IL-12 (p40): Mean % Cytokine Concentration in DNFB Treated Right Ears versus Vehicle 1-Dosed (S) Mice (25 mg/kg, regimen E): 81%
- IL-13: Mean % Cytokine Concentration in DNFB Treated Right Ears versus Vehicle 1-Dosed (S) Mice (25 mg/kg, regimen E): 79%
- IL-17A: Mean % Cytokine Concentration in DNFB Treated Right Ears versus Vehicle 1-Dosed (S) Mice (25 mg/kg, regimen E): 53%
- KC: Mean % Cytokine Concentration in DNFB Treated Right Ears versus Vehicle 1-Dosed (S) Mice (25 mg/kg, regimen E): 30%
- MCP-1: Mean % Cytokine Concentration in DNFB Treated Right Ears versus Vehicle 1-Dosed (S) Mice (25 mg/kg, regimen E): 37%
- MIP-1α: Mean % Cytokine Concentration in DNFB Treated Right Ears versus Vehicle 1-Dosed (S) Mice (25 mg/kg, regimen E): 62%
- MIP-1β: Mean % Cytokine Concentration in DNFB Treated Right Ears versus Vehicle 1-Dosed (S) Mice (25 mg/kg, regimen E): 44%
- RANTES: Mean % Cytokine Concentration in DNFB Treated Right Ears versus Vehicle 1-Dosed (S) Mice (25 mg/kg, regimen E): 55%
- TNF-α: Mean % Cytokine Concentration in DNFB Treated Right Ears versus Vehicle 1-Dosed (S) Mice (25 mg/kg, regimen E): 67%
- G-CSF: Mean % Cytokine Concentration in DNFB Treated Right Ears versus Vehicle 1-Dosed (S) Mice (60 mg/kg, regimen E): 36%
- GM-CSF: Mean % Cytokine Concentration in DNFB Treated Right Ears versus Vehicle 1-Dosed (S) Mice (60 mg/kg, regimen E): 0%
- IFN-γ: Mean % Cytokine Concentration in DNFB Treated Right Ears versus Vehicle 1-Dosed (S) Mice (60 mg/kg, regimen E): 25%
- IL-1α: Mean % Cytokine Concentration in DNFB Treated Right Ears versus Vehicle 1-Dosed (S) Mice (60 mg/kg, regimen E): 120%
- IL-1β: Mean % Cytokine Concentration in DNFB Treated Right Ears versus Vehicle 1-Dosed (S) Mice (60 mg/kg, regimen E): 32%
- IL-3: Mean % Cytokine Concentration in DNFB Treated Right Ears versus Vehicle 1-Dosed (S) Mice (60 mg/kg, regimen E): 53%
- IL-5: Mean % Cytokine Concentration in DNFB Treated Right Ears versus Vehicle 1-Dosed (S) Mice (60 mg/kg, regimen E): 23%
- IL-6: Mean % Cytokine Concentration in DNFB Treated Right Ears versus Vehicle 1-Dosed (S) Mice (60 mg/kg, regimen E): 31%
- IL-12 (p40): Mean % Cytokine Concentration in DNFB Treated Right Ears versus Vehicle 1-Dosed (S) Mice (60 mg/kg, regimen E): 64%
- IL-13: Mean % Cytokine Concentration in DNFB Treated Right Ears versus Vehicle 1-Dosed (S) Mice (60 mg/kg, regimen E): 61%
- IL-17A: Mean % Cytokine Concentration in DNFB Treated Right Ears versus Vehicle 1-Dosed (S) Mice (60 mg/kg, regimen E): 42%
- KC: Mean % Cytokine Concentration in DNFB Treated Right Ears versus Vehicle 1-Dosed (S) Mice (60 mg/kg, regimen E): 21%
- MCP-1: Mean % Cytokine Concentration in DNFB Treated Right Ears versus Vehicle 1-Dosed (S) Mice (60 mg/kg, regimen E): 31%
- MIP-1α: Mean % Cytokine Concentration in DNFB Treated Right Ears versus Vehicle 1-Dosed (S) Mice (60 mg/kg, regimen E): 42%
- MIP-1β: Mean % Cytokine Concentration in DNFB Treated Right Ears versus Vehicle 1-Dosed (S) Mice (60 mg/kg, regimen E): 31%
- RANTES: Mean % Cytokine Concentration in DNFB Treated Right Ears versus Vehicle 1-Dosed (S) Mice (60 mg/kg, regimen E): 37%
- TNF-α: Mean % Cytokine Concentration in DNFB Treated Right Ears versus Vehicle 1-Dosed (S) Mice (60 mg/kg, regimen E): 48%
- G-CSF: Mean % Cytokine Concentration in DNFB Treated Right Ears versus Vehicle 1-Dosed (S) Mice (60 mg/kg, regimen S): 27%
- GM-CSF: Mean % Cytokine Concentration in DNFB Treated Right Ears versus Vehicle 1-Dosed (S) Mice (60 mg/kg, regimen S): 0%
- IFN-γ: Mean % Cytokine Concentration in DNFB Treated Right Ears versus Vehicle 1-Dosed (S) Mice (60 mg/kg, regimen S): 22%
- IL-1α: Mean % Cytokine Concentration in DNFB Treated Right Ears versus Vehicle 1-Dosed (S) Mice (60 mg/kg, regimen S): 88%
- IL-1β: Mean % Cytokine Concentration in DNFB Treated Right Ears versus Vehicle 1-Dosed (S) Mice (60 mg/kg, regimen S): 23%
- IL-3: Mean % Cytokine Concentration in DNFB Treated Right Ears versus Vehicle 1-Dosed (S) Mice (60 mg/kg, regimen S): 45%
- IL-5: Mean % Cytokine Concentration in DNFB Treated Right Ears versus Vehicle 1-Dosed (S) Mice (60 mg/kg, regimen S): 5%
- IL-6: Mean % Cytokine Concentration in DNFB Treated Right Ears versus Vehicle 1-Dosed (S) Mice (60 mg/kg, regimen S): 20%
- IL-12 (p40): Mean % Cytokine Concentration in DNFB Treated Right Ears versus Vehicle 1-Dosed (S) Mice (60 mg/kg, regimen S): 49%
- IL-13: Mean % Cytokine Concentration in DNFB Treated Right Ears versus Vehicle 1-Dosed (S) Mice (60 mg/kg, regimen S): 47%
- IL-17A: Mean % Cytokine Concentration in DNFB Treated Right Ears versus Vehicle 1-Dosed (S) Mice (60 mg/kg, regimen S): 38%
- KC: Mean % Cytokine Concentration in DNFB Treated Right Ears versus Vehicle 1-Dosed (S) Mice (60 mg/kg, regimen S): 19%
- MCP-1: Mean % Cytokine Concentration in DNFB Treated Right Ears versus Vehicle 1-Dosed (S) Mice (60 mg/kg, regimen S): 27%
- MIP-1α: Mean % Cytokine Concentration in DNFB Treated Right Ears versus Vehicle 1-Dosed (S) Mice (60 mg/kg, regimen S): 29%
- MIP-1β: Mean % Cytokine Concentration in DNFB Treated Right Ears versus Vehicle 1-Dosed (S) Mice (60 mg/kg, regimen S): 24%
- RANTES: Mean % Cytokine Concentration in DNFB Treated Right Ears versus Vehicle 1-Dosed (S) Mice (60 mg/kg, regimen S): 27%
- TNF-α: Mean % Cytokine Concentration in DNFB Treated Right Ears versus Vehicle 1-Dosed (S) Mice (60 mg/kg, regimen S): 39%
